From PubChem BioAssay (NCI)
Where “and” joins values, the source holds several entries; their conditions need not be identical. Equal values may be shown once.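 Values below derive from 48-hour exposures of cells grown in 96-well plates, with endpoints linearly interpolated between the two concentrations bracketing the appropriate inhibition level. GI50 = concentration required for 50% inhibition of growth. Definition used: TGI = concentration required for complete inhibition of growth.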

Tests used:
Test in all cases: inhibition of tumour cell growth, NCI panel, 48 h
DLD-1 colon = tested on: DLD-1 colon
DMS 114 small cell lung = tested on: DMS 114 small cell lung
HOP-18 NSCLC = tested on: HOP-18 NSCLC
KM20L2 colon = tested on: KM20L2 colon
LXFL 529 NSCLC = tested on: LXFL 529 NSCLC
M19-MEL melanoma = tested on: M19-MEL melanoma
RXF-631 renal = tested on: RXF-631 renal
MDA-N = tested on: MDA-N
DMS 273 small cell lung = tested on: DMS 273 small cell lung

Row | Compound | TGI (DLD-1 colon) [µM] | TGI (DMS 114 small cell lung) [µM] | TGI (HOP-18 NSCLC) [µM] | TGI (KM20L2 colon) [µM] | TGI (LXFL 529 NSCLC) [µM] | TGI (M19-MEL melanoma) [µM] | TGI (RXF-631 renal) | TGI (MDA-N) | TGI (DMS 273 small cell lung) | further results
1 | NCCNCc1c2ccccc2c(CNCCN)c2ccccc12 | > 100 | 33.1 | 90.1 | 74.1 | 22.1 | 84.4 | > 100 µM |  |  | 
2 | CN(Cc1cc(Cl)cc(Cl)c1O)Cc1c(O)ccc2ccccc12 |  |  |  |  |  |  |  | 66.1 µM |  | 
3 | Cc1cc(C)nc(NS(=O)(=O)c2ccc(Nc3c4ccc(Cl)cc4nc4c(C(=O)NCCN(C)C)cccc34)cc2)n1 | > 100 | > 100 |  | > 100 | > 100 | > 100 | > 100 µM |  | > 100 µM | 
4 | Cc1ccc(S(=O)OCC23CC4CC(CC(C4)C2)C3)cc1 (stereo unspecified) | > 100 |  | > 100 | > 100 | > 100 | > 100 |  |  | > 100 µM | 
5 | Cc1c(O)c2c(c(O)c1Br)C(=O)C=CC2=O |  |  |  |  |  |  |  | 0.615 µM and 2.08 µM |  | GI50 (MDA-N): 0.63 µM
6 | NCOC(=O)Cc1ccc(Br)cc1 |  |  |  |  |  |  |  | > 100 µM |  | 
7 | COC(=O)C1=C(C(=O)OC)C2(C)Nc3ccccc3C2=C(c2ccccc2)C1 (stereo unspecified) | > 100 | 44.4 |  | 74.3 | 32.1 | 46 |  |  | 43.7 µM | 
8 | NCC1OC(OC2C(CO)OC(OC3C(O)C(N)CC(N)C3OC3OC(CO)C(O)CC3N)C2O)C(N)C(O)C1OC1OC(CO)C(O)C(O)C1O (stereo unspecified) |  |  |  |  |  |  |  | > 50 µg/mL |  | GI50 (MDA-N): > 50 µg/mL
9 | CC1(c2ccccc2)CC(c2cccc([N+](=O)[O-])c2)=NO1 (stereo unspecified) | > 100 | > 100 | > 100 |  | > 100 | > 100 | > 100 µM |  | > 100 µM | 
10 | CC(C)NC(=O)CCN(C(=O)O)S(=O)(=O)c1ccc(NC(=O)c2ccccc2)cc1 | > 72.6 | > 54.3 | > 100 | > 100 | > 100 | > 89.2 | > 100 µM |  | > 56.7 µM | 
11 | Cc1ccc(NC(=O)/C(Cl)=C(/Cl)C(=O)O)cc1 | 33.5 | 34.2 | 34.7 | 40.3 | 26.6 | 29.5 | 49.8 µM |  | 41.7 µM | 
12 | O=C(COC(=O)c1cccc2c(=O)c3ccccc3[nH]c12)Nc1ccc(C(=O)O)cc1 | > 100 | > 100 | > 100 | > 100 |  | > 100 | > 100 µM |  |  | 
13 | CC1=CC(N2C(=O)C(C)=CC2O)NC1=O (stereo unspecified) | > 100 |  |  | > 100 | > 100 | > 100 |  |  |  | 
14 | O=C1CCSC2=C1SCc1sccc12 | > 100 | > 100 |  | > 100 | > 100 | > 100 |  |  |  | 
15 | Cc1cc(C(C)(C)C)cc(CNC2CCCCC2)c1O |  |  |  |  |  |  |  | 29.9 µM |  | 
16 | O=C(O)c1ccc(C(=O)O)c(C(=O)Nc2ccc3c(c2)C(=O)c2ccccc2-3)c1 |  |  |  |  |  |  |  | > 100 µM |  | 
17 | CC1OC(OC2C(OC3CCC4(C)C(CCC5(C)C4CC=C4C6CC(C)(C)CCC6(C(=O)O)CCC45C)C3(C)CO)OCC(O)C2O)C(O)C(O)C1O (stereo unspecified) |  |  |  |  |  |  |  | 39.9 µM |  | 
18 | COc1cc2c(cc1OC)C1Cc3cc(OC)c(OC)cc3C(C2)N1C | > 100 |  |  | > 100 | > 100 |  |  | > 75 µM |  | 
19 | CC(=O)OC12COC1CC(O)C1(C)C(=O)C(O)C3=C(C)C(O)CC(O)(C(OC(=O)c4ccccc4)C21)C3(C)C (stereo unspecified) |  |  |  | 5.42 |  | > 100 |  |  | 17.6 µM | 
20 | COc1ccc(C2C(C)C(=O)C(C)C(c3ccc(OC)cc3)N2N=O)cc1 (stereo unspecified) | > 1000 | > 1000 | > 1000 | > 1000 | > 1000 | > 1000 | 750 µM and 281 µM | 381 µM | 750 µM and > 1000 µM | GI50 (DLD-1 colon): > 750 µM; GI50 (DMS 114 small cell lung): > 1000 µM; GI50 (DMS 273 small cell lung): 609 µM; GI50 (HOP-18 NSCLC): > 1000 µM; GI50 (LXFL 529 NSCLC): > 1000 µM; GI50 (M19-MEL melanoma): > 1000 µM; GI50 (RXF-631 renal): 270 µM
